# According to patent US10780090B2, “Heteroaryl compounds useful as inhibitors of SUMO activating enzyme” (Millennium Pharmaceuticals, Inc., priority 2014, dated 2020):
# Molecular target: recombinant human SAE enzyme (Homo sapiens (Human), UniProt Q9UBT2)
# Assay: SAE HTRF enzyme assay
# Assay type: biochemical
# Details: for Percent Inhibition: Concentration 0.111 μM; for IC50: class symbols A/B/C
# Outline: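 0.11 nM SAE incubated with 0.5 μM ATP, 0.01 μM Ubc9-GST and 0.125 μM Sumo-Flag in HEPES pH 7.5, MgCl2, GSH, BSA, ±inhibitor, 105 min at 24° C. EDTA stop; Eu-cryptate anti-Flag/XL-APC anti-GST HTRF read after 2 h. Values given as single-concentration % inhibition or IC50.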
# recombinant human SAE enzyme, sequence (Q9UBT2 whole entry): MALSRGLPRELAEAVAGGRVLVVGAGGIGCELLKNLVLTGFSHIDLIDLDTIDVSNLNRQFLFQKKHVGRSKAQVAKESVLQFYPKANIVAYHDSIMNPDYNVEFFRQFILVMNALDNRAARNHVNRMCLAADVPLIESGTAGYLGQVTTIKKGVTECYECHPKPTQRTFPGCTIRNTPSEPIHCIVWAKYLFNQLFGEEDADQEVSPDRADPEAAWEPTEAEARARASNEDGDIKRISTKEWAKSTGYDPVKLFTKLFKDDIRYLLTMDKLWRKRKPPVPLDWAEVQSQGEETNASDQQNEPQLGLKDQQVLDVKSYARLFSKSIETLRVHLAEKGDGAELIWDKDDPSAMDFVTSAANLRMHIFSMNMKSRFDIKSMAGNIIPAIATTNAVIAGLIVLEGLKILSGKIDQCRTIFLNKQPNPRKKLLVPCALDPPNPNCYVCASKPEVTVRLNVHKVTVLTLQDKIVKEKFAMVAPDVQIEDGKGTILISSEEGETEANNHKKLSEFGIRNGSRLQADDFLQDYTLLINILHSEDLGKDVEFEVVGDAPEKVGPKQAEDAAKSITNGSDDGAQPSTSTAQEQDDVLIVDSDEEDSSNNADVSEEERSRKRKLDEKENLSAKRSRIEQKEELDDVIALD
# recombinant human SAE enzyme, sequence (Q9UBE0 whole entry partner): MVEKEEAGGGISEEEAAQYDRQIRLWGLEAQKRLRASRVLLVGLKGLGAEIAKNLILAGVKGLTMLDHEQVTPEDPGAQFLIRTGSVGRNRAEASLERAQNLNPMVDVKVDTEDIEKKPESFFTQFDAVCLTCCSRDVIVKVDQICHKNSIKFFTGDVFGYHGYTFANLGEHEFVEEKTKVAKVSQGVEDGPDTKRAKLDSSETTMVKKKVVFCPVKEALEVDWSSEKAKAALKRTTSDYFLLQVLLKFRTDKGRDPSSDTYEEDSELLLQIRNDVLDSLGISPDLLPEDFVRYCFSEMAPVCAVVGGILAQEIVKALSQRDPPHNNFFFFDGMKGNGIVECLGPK
SMILES,Percent Inhibition,IC50 [nM]
"NS(=O)(=O)OC[C@H]1C[C@@H](Nc2ncncc2C(=O)c2cc([C@@H]3NCCc4ccc(Cl)cc43)c(Cl)s2)[C@H](O)[C@@H]1O (single isomer, unassigned) [I-249b, [(1R,2R,3S,4R)-4-{[5-({5-chloro-4-[(1R)-7-chloro-1,2,3,4-tetrahydroisoquinolin-1-yl]-2-thienyl}carbonyl)pyrimidin-4-yl]amino}-2,3-dihydroxycyclopentyl]methyl sulfamate or [(1R,2R,3S,4R)-4-{[5-({5-chloro-4-[(1S)-7-chloro-1,2,3,4-tetrahydroisoquinolin-1-yl]-2-thienyl}carbonyl)pyrimidin-4-yl]amino}-2,3-dihydroxycyclopentyl]methyl sulfamate]",92,< 10
"Cc1sc(C(=O)c2cncnc2N[C@@H]2C[C@H](COS(N)(=O)=O)[C@@H](O)[C@H]2O)cc1[C@@H]1OCCc2ccccc21 (single isomer, unassigned) [I-250a, [(1R,2R,3S,4R)-4-{[5-({4-[(1R)-3,4-dihydro-1H-isochromen-1-yl]-5-methyl-2-thienyl}carbonyl)pyrimidin-4-yl]amino}-2,3-dihydroxycyclopentyl]methyl sulfamate or [(1R,2R,3S,4R)-4-{[5-({4-[(1S)-3,4-dihydro-1H-isochromen-1-yl]-5-methyl-2-thienyl}carbonyl)pyrimidin-4-yl]amino}-2,3-dihydroxycyclopentyl]methyl sulfamate]",97,< 10
"Cc1sc(C(=O)c2cncnc2N[C@@H]2C[C@H](COS(N)(=O)=O)[C@@H](O)[C@H]2O)cc1[C@@H]1OCCc2ccccc21 (single isomer, unassigned) [I-250b, [(1R,2R,3S,4R)-4-{[5-({4-[(1R)-3,4-dihydro-1H-isochromen-1-yl]-5-methyl-2-thienyl}carbonyl)pyrimidin-4-yl]amino}-2,3-dihydroxycyclopentyl]methyl sulfamate or [(1R,2R,3S,4R)-4-{[5-({4-[(1S)-3,4-dihydro-1H-isochromen-1-yl]-5-methyl-2-thienyl}carbonyl)pyrimidin-4-yl]amino}-2,3-dihydroxycyclopentyl]methyl sulfamate]",98,< 10
"NS(=O)(=O)OC[C@H]1C[C@@H](Nc2ncncc2C(=O)c2cc([C@@H]3NCCc4ccc(Br)cc43)c(Cl)s2)C[C@@H]1O (single isomer, unassigned) [I-251a, [(1R,2S,4R)-4-{[5-({4-[(1R)-7-bromo-1,2,3,4-tetrahydroisoquinolin-1-yl]-5-chloro-2-thienyl}carbonyl)pyrimidin-4-yl]amino}-2-hydroxycyclopentyl]methyl sulfamate or [(1R,2S,4R)-4-{([5-({4-[(1S)-7-bromo-1,2,3,4-tetrahydroisoquinolin-1-yl]-5-chloro-2-thienyl}carbonyl)pyrimidin-4-yl]amino}-2-hydroxycyclopentyl]methyl sulfamate]",100,< 10
"NS(=O)(=O)OC[C@H]1C[C@@H](Nc2ncncc2C(=O)c2cc([C@@H]3NCCc4ccc(Br)cc43)c(Cl)s2)C[C@@H]1O (single isomer, unassigned) [I-251b, [(1R,2S,4R)-4-{[5-({4-[(1R)-7-bromo-1,2,3,4-tetrahydroisoquinolin-1-yl]-5-chloro-2-thienyl}carbonyl)pyrimidin-4-yl]amino}-2-hydroxycyclopentyl]methyl sulfamate or [(1R,2S,4R)-4-{[5-({4-[(1S)-7-bromo-1,2,3,4-tetrahydroisoquinolin-1-yl]-5-chloro-2-thienyl}carbonyl)pyrimidin-4-yl]amino}-2-hydroxycyclopentyl]methyl sulfamate]",97,< 10
"C#Cc1ccc2c(c1)[C@H](c1cc(C(=O)c3cncnc3N[C@@H]3C[C@H](COS(N)(=O)=O)[C@@H](O)C3)sc1C)OCC2 (single isomer, unassigned) [I-252a, [(1R,2S,4R)-4-{[5-({4-[(1R)-7-ethynyl-3,4-dihydro-1H-isochromen-1-yl]-5-methyl-2-thienyl}carbonyl)pyrimidin-4-yl]amino}-2-hydroxycyclopentyl]methyl sulfamate or [(1R,2S,4R)-4-{[5-({4-[(1S)-7-ethynyl-3,4-dihydro-1H-isochromen-1-yl]-5-methyl-2-thienyl}carbonyl)pyrimidin-4-yl]amino}-2-hydroxycyclopentyl]methyl sulfamate]",71,10 to 100
"C#Cc1ccc2c(c1)[C@H](c1cc(C(=O)c3cncnc3N[C@@H]3C[C@H](COS(N)(=O)=O)[C@@H](O)C3)sc1C)OCC2 (single isomer, unassigned) [I-252b, [(1R,2S,4R)-4-{[5-({4-[(1R)-7-ethynyl-3,4-dihydro-1H-isochromen-1-yl]-5-methyl-2-thienyl}carbonyl)pyrimidin-4-yl]amino}-2-hydroxycyclopentyl]methyl sulfamate or [(1R,2S,4R)-4-{([5-({4-[(1S)-7-ethynyl-3,4-dihydro-1H-isochromen-1-yl]-5-methyl-2-thienyl}carbonyl)pyrimidin-4-yl]amino}-2-hydroxycyclopentyl]methyl sulfamate]",98,< 10
"NS(=O)(=O)OC[C@H]1C[C@@H](Nc2ncncc2C(=O)c2cc([C@@H]3NCCc4ccc(Cl)nc43)c(Cl)s2)C[C@@H]1O (single isomer, unassigned) [I-253a, [(1R,2S,4R)-4-{[5-({5-chloro-4-[(8S)-2-chloro-5,6,7,8-tetrahydro-1,7-naphthyridin-8-yl-2-thienyl}carbonyl)pyrimidin-4-yl]amino}-2-hydroxycyclopentyl]methyl sulfamate or ((1R,2S,4R)-4-{([5-({5-chloro-4-[(8R)-2-chloro-5,6,7,8-tetrahydro-1,7-naphthyridin-8-yl]-2-thienyl}carbonyl)pyrimidin-4-yl]amino}-2-hydroxycyclopentyl]methyl sulfamate]",99,< 10
"NS(=O)(=O)OC[C@H]1C[C@@H](Nc2ncncc2C(=O)c2cc([C@@H]3NCCc4ccc(Cl)nc43)c(Cl)s2)C[C@@H]1O (single isomer, unassigned) [I-253b, [(1R,2S,4R)-4-{[5-({5-chloro-4-[(8S)-2-chloro-5,6,7,8-tetrahydro-1,7-naphthyridin-8-yl]-2-thienyl}carbonyl)pyrimidin-4-yl]amino}-2-hydroxycyclopentyl]methyl sulfamate or [(1R,2S,4R)-4-{[5-({5-chloro-4-[(8R)-2-chloro-5,6,7,8-tetrahydro-1,7-naphthyridin-8-yl]-2-thienyl}carbonyl)pyrimidin-4-yl]amino}-2-hydroxycyclopentyl]methyl sulfamate]",83,10 to 100
"NS(=O)(=O)OC[C@H]1C[C@@H](Nc2ncncc2C(=O)c2cc([C@@H]3OCCc4ccccc43)cs2)C[C@@H]1O (single isomer, unassigned) [I-254a, [(1R,2S,4R)-4-{[5-({4-[(1R)-3,4-dihydro-1H-isochromen-1-yl]-2-thienyl}carbonyl)pyrimidin-4-yl]amino}-2-hydroxycyclopentyl]methyl sulfamate or [(1R,2S,4R)-4-{[5-({4-[(1S)-3,4-dihydro-1H-isochromen-1-yl]-2-thienyl}carbonyl)pyrimidin-4-yl]amino}-2-hydroxycyclopentyl]methyl sulfamate]",81,10 to 100
"NS(=O)(=O)OC[C@H]1C[C@@H](Nc2ncncc2C(=O)c2cc([C@@H]3OCCc4ccccc43)cs2)C[C@@H]1O (single isomer, unassigned) [I-254b, [(1R,2S,4R)-4-{[5-({4-[(1R)-3,4-dihydro-1H-isochromen-1-yl]-2-thienyl}carbonyl)pyrimidin-4-yl]amino}-2-hydroxycyclopentyl]methyl sulfamate or [(1R,2S,4R)-4-{[5-({4-[(S)-3,4-dihydro-1H-isochromen-1-yl]-2-thienyl}carbonyl)pyrimidin-4-yl]amino}-2-hydroxycyclopentyl]methyl sulfamate]",99,< 10
"NS(=O)(=O)OC[C@H]1C[C@@H](Nc2ncncc2C(=O)c2cc(C3NCCc4ccc(Cl)cc43)c(Cl)s2)C[C@@H]1O (single isomer, unassigned) [I-255a, [(1R,2S,4R)-4-{[5-({5-chloro-4-[(1R)-7-chloro-1,2,3,4-tetrahydroisoquinolin-1-yl]-2-thienyl}carbonyl)pyrimidin-4-yl]amino}-2-hydroxycyclopentyl]methyl sulfamate or [(1R,2S,4R)-4-{[5-({5-chloro-4-[(1S)-7-chloro-1,2,3,4-tetrahydroisoquinolin-1-yl]-2-thienyl}carbonyl)pyrimidin-4-yl]amino}-2-hydroxycyclopentyl]methyl sulfamate]",93,10 to 100
"NS(=O)(=O)OC[C@H]1C[C@@H](Nc2ncncc2C(=O)c2cc(C3NCCc4ccc(Cl)cc43)c(Cl)s2)C[C@@H]1O (single isomer, unassigned) [I-255b, [(1R,2S,4R)-4-{[5-({5-chloro-4-[(1R)-7-chloro-1,2,3,4-tetrahydroisoquinolin-1-yl]-2-thienyl}carbonyl)pyrimidin-4-yl]amino}-2-hydroxycyclopentyl]methyl sulfamate or [(1R,2S,4R)-4-{[5-({5-chloro-4-[(1S)-7-chloro-1,2,3,4-tetrahydroisoquinolin-1-yl-2-thienyl}carbonyl)pyrimidin-4-yl]amino}-2-hydroxycyclopentyl]methyl sulfamate]",100,< 10
